Laboratory results taken from patent publication US20260217765A1, “NOVEL ANTIMICROBIAL PEPTIDE DESIGNED FROM DUCK-DERIVED ANTIMICROBIAL PEPTIDE ANDUSE THEREOF” (INDUSTRY-ACADEMIC COOPERATION FOUNDATION, CHOSUN UNIVERSITY, priority 2023, published 2026).
Converted amounts (≈) assume the structure as drawn. Peptide text beside a SMILES is read from it.

Experiments:
[1] = system: Acinetobacter baumannii membrane; experiment: Flow cytometry, propidium iodide, action on bacterial membrane; assay type: cell-based; conditions: peptide at twice the MIC, 37° C. 10 minutes
Experimental: To determine whether the peptides prepared in <Example 1> act on bacterial membranes, the parent peptide and the novel peptides dCATH-A1, dCATH-A2, dCATH-A3, dCATH-A4, dCATH-A5, dCATH-A6, and dCATH-A7 were analyzed using flow cytometry.
Specifically, Acinetobacter baumannii was treated with each peptide at twice the minimum inhibitory concentration (MIC), followed by incubation at 37° C. for 10 minutes. The supernatant was then removed by centrifugation at 10,000 rpm, and the bacterial cells were stained with propidium iodide (PI) at a concentration of 10 μg/mL at 4° C. for 30 minutes. Unbound PI was removed by centrifugation, and 1 mL of phosphate-buffered saline (PBS) was added to disperse any cell clumps. The effect of the peptides on the bacterial membrane was then assessed using a Beckman flow cytometer.

[2] = system: Acinetobacter baumannii KCTC 2508; assay type: cell-based; conditions: KCTC 2508, 24 h
Experimental: (§1) Specifically, among the bacterial strains listed in Table 2, those known to form biofilms well (Acinetobacter baumannii KCTC 2508, Acinetobacter baumannii isolate 10, and isolate 14) were cultured in the appropriate media to the mid-log phase and diluted to a cell concentration of 5×10^4 cells/100 µL, followed by inoculation into microplates (SPL). Subsequently, the peptides prepared in <Example 1> were serially 10-fold diluted with 10 mM sodium phosphate buffer (pH 7.2), and 10 μL of each dilution was added to each well. The plates were then incubated at 37° C. for 24 hours. After completely removing the supernatant, the plates were fixed with 100% methanol for 15 minutes, stained with crystal violet staining solution for 1 hour, washed three times, and then the stain was solubilized with 95% ethanol. Absorbance was measured at 595 nm using a microplate reader to determine the MBIC values for each bacterial strain.

[3] = system: Acinetobacter baumannii_isolate 14; assay type: cell-based, Acinetobacter baumannii; conditions: isolate 14, 24 h
Experimental: as §1

[4] = system: Acinetobacter baumannii_isolate 10; assay type: cell-based, Acinetobacter baumannii; conditions: isolate 10, 24 h
Experimental: as §1

[5] = system: Acinetobacter baumannii_isolate 14 (antibiotic-resistant); assay type: cell-based, Acinetobacter baumannii; conditions: isolate 14 (antibiotic-resistant)
Outline: (§2)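 Lowest peptide concentration blocking visible growth was recorded as MIC. Setup: mid-log cells, 2×10^4 cells/100 μL, twofold peptide series, 37° C, 18 h, OD 600 nm; dCATH parent peptide served as comparator.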

[6] = system: Acinetobacter baumannii_isolate 10 (antibiotic-resistant); assay type: cell-based, Acinetobacter baumannii; conditions: isolate 10 (antibiotic-resistant)
Outline: as §2

[7] = system: Acinetobacter baumannii_isolate 6 (antibiotic-resistant); assay type: cell-based, Acinetobacter baumannii; conditions: isolate 6 (antibiotic-resistant)
Outline: as §2

[8] = system: Acinetobacter baumannii_isolate20 (antibiotic-resistant); assay type: cell-based, Acinetobacter baumannii; conditions: isolate20 (antibiotic-resistant)
Outline: as §2

[9] = system: Acinetobacter baumannii_isolate 17 (antibiotic-resistant); assay type: cell-based, Acinetobacter baumannii; conditions: isolate 17 (antibiotic-resistant)
Outline: as §2

[10] = system: Acinetobacter baumannii_isolate11 (antibiotic-resistant); assay type: cell-based, Acinetobacter baumannii; conditions: isolate11 (antibiotic-resistant)
Outline: as §2

[11] = system: Acinetobacter baumannii_isolate 9 (antibiotic-resistant); assay type: cell-based, Acinetobacter baumannii; conditions: isolate 9 (antibiotic-resistant)
Outline: as §2

plasmid DNA (pRSETB) = experiment: Binding to bacterial DNA, agarose gel electrophoresis; conditions: 260 ng plasmid DNA, DNA/peptide ratios 1:1 to 1:4, 37° C. 10 minutes
Experimental: Accordingly, to further elucidate the mechanism by which these novel peptides exert antimicrobial activity, it was examined whether the novel peptides dCATH-A6 and dCATH-A7 bind to intracellular bacterial DNA using electrophoresis.
Specifically, 260 ng of plasmid DNA (pRSETB) was reacted with each peptide at various ratios (lanes 1 through […] represent DNA only, 1:1, 1:2, 1:3, and 1:4 DNA/peptide ratios, respectively) at 37° C. for 10 minutes. The samples were then subjected to electrophoresis on a 1% agarose gel, stained with ethidium bromide (EtBr), and visualized under UV light.

sheep red blood cells = assay type: cell-based
Experimental: To evaluate the cytotoxicity of the peptides prepared in <Example 1>, their hemolytic activity against red blood cells was measured. Hemolysis refers to the rupture of red blood cells with the release of hemoglobin into the surrounding fluid. The cytotoxicity of the novel peptides of the present disclosure was assessed by measuring their hemolytic activity against erythrocytes.
Specifically, sheep red blood cells were diluted with PBS (pH 7.0) to a final concentration of 8%. The peptides dCATH, dCATH-A1, dCATH-A2, dCATH-A3, dCATH-A4, dCATH-A5, dCATH-A6, and dCATH-A7 were each added to the wells at concentrations of 3.13, 6.25, 12.5, 25.0, 50.0, and 100.0 μM/well and reacted at 37° C. for 1 hour. Thereafter, the samples were centrifuged at 1, 000×g, and the absorbance of hemoglobin in the supernatant was measured at 414 nm. As a control for complete cell lysis, 1% Triton X-100 (Sigma, USA) was used and incubated under the same conditions. The absorbance of this sample was set to represent 100% hemolysis, and hemolytic activity (%) for each peptide was calculated using the following Equation 1.
In the above equation, Absorbance A is the absorbance at 414 nm of the reaction solution treated with each peptide, Absorbance B is the absorbance at 414 nm of the PBS-treated reaction solution, and Absorbance C is the absorbance at 414 nm of the reaction solution treated with 1% Triton X-100.

CC[C@H](C)[C@H](NC(=O)[C@H](C)NC(=O)[C@H](CCCCN)NC(=O)[C@H](CCCCN)NC(=O)[C@@H](NC(=O)[C@H](CC(C)C)NC(=O)[C@H](CCC(N)=O)NC(=O)[C@H](C)NC(=O)[C@H](C)NC(=O)[C@H](CCCNC(=N)N)NC(=O)[C@@H](N)CCCCN)C(C)C)C(=O)N[C@@H](CCCCN)C(=O)N[C@@H](CCCCN)C(=O)N[C@@H](Cc1ccc(O)cc1)C(=O)N[C@@H](CCCNC(=N)N)C(=O)N[C@@H](C)C(=O)N[C@@H](Cc1c[nH]c2ccccc12)C(=O)N[C@@H](CCCCN)C(=O)N[C@@H](CCCNC(=N)N)C(=O)N[C@@H](CCCNC(=N)N)C(N)=O [dCATH-A6] (H-KRAAQLVKKAIKKYRAWKRR-NH2; N-terminus assumed)
membrane damage in Acinetobacter baumannii (shift in PI fluorescence signal) [1]: no damage to the bacterial membrane | MBIC [2]: 2 µM | MBIC [3]: 2 µM | MBIC [4]: 2 µM | MIC [5]: 2 µM (≈ 5 µg/mL) | MIC [6]: 2 µM (≈ 5 µg/mL) | MIC [7]: 2 µM (≈ 5 µg/mL) | MIC [8]: 1 µM (≈ 2.5 µg/mL) | MIC [9]: 1 µM (≈ 2.5 µg/mL) | MIC [10]: 1 µM (≈ 2.5 µg/mL) | MIC [11]: 1 µM (≈ 2.5 µg/mL) | binding to DNA (electrophoresis) (plasmid DNA (pRSETB)): did bind to DNA | hemolytic activity at concentrations corresponding to antimicrobial activity (sheep red blood cells): no hemolytic activity

CC[C@H](C)[C@H](NC(=O)[C@H](C)NC(=O)[C@H](CCCCN)NC(=O)[C@H](CCCCN)NC(=O)[C@@H](NC(=O)[C@H](CC(C)C)NC(=O)[C@H](CCC(N)=O)NC(=O)[C@H](C)NC(=O)[C@H](C)NC(=O)[C@H](CCCNC(=N)N)NC(=O)[C@@H](N)CCCCN)C(C)C)C(=O)N[C@@H](CCCCN)C(=O)N[C@@H](CCCCN)C(=O)N[C@@H](Cc1ccc(O)cc1)C(=O)N[C@@H](CCCNC(=N)N)C(=O)N[C@@H](C)C(=O)N[C@@H](Cc1c[nH]c2ccccc12)C(=O)N[C@@H](CCCCN)C(N)=O [dCATH-A7, KRAAQLVKKAIKKYRAWK] (H-KRAAQLVKKAIKKYRAWK-NH2; N-terminus assumed)
membrane damage in Acinetobacter baumannii (shift in PI fluorescence signal) [1]: no damage to the bacterial membrane | MBIC [2]: 2 µM | MBIC [3]: 1 µM | MBIC [4]: 2 µM | MIC [5]: 1 µM (≈ 2.19 µg/mL) | MIC [6]: 1 µM (≈ 2.19 µg/mL) | MIC [7]: 1 µM (≈ 2.19 µg/mL) | MIC [8]: 1 µM (≈ 2.19 µg/mL) | MIC [9]: 1 µM (≈ 2.19 µg/mL) | MIC [10]: 0.5 µM (≈ 1.09 µg/mL) | MIC [11]: 1 µM (≈ 2.19 µg/mL) | binding to DNA (electrophoresis) (plasmid DNA (pRSETB)): did bind to DNA | hemolytic activity at concentrations corresponding to antimicrobial activity (sheep red blood cells): no hemolytic activity
